Data published in patent publication US20240100065A1, “METHODS FOR TREATING RECEPTOR-INTERACTING PROTEIN KINASE 1-MEDIATED DISEASES” (Genzyme Corporation, priority 2022, published 2024).
Where two headings read alike, the source gives them in different places.

Assay: Plasma pharmacokinetics after single and repeated oral doses
Format: in vivo, healthy adult participants (human)
Details: for Time to steady state (Tss), 50% median, point estimate / Time to steady state (Tss), 90% quantile, point estimate: overall; for AUC / AUC(0-t) / Cmax / Tmax / Vd/F: human, plasma, oral; for Vd/F: read-out: Vz/F, mean
Method: In Part 1a, plasma samples were collected before dosing and at 10 post-dose timepoints on Day 1 (30 minutes, 1 hour, followed by every hour until 6 hours, and then every 2 hours until 12 hours), and single samples on Day 2 (at 24 hours) and Day 3 (at 48 hours). In Part 1b, timepoints included at least pre-dose and at 10 post-dose timepoints, including plasma sampling at the same time of CSF sampling. In Part 2, on Day 1 and Day 14, plasma samples were collected at pre-dose and at 10 to 11 post-dose timepoints. In addition, plasma samples were collected on Days 2, 3, 5, 7, 11, 15, 16, and 17.
PK population included all participants exposed to Compound 1 with no major or critical deviations related to Compound 1 and for whom PK data were considered sufficient and interpretable. PK parameters were summarized by descriptive statistics for each dose level group. Distribution of Tmax values was represented by histogram plots for each dose level group. In Part 1a, dose proportionality was assessed using a linear model on Cmax, AUClast and AUC. In Part 2, all PK analyses were performed separately for each regimen (OD and BID). Steady state was assessed on Ctrough using a non-linear model. Accumulation was assessed using a linear model on log-transformed accumulation ratio. Dose proportionality was assessed using a power model on Cmax and AUCtau on Day 1 and Day 14, separately. Variance components of log-transformed Cmax and AUCtau were estimated using a linear model. In Part 1b, CSF concentration was described by dose level group and CSF to plasma unbound concentration ratios calculated were described in the same way. 4β-hydroxycholesterol on Day 14 versus Day 1 pre-dose concentration ratios were summarized using descriptive statistics by dose level group and point estimates with 90% confidence interval (90% CI) for the geometric mean of the log-transformed Day14/Day1 ratio was calculated in Part 2.

[1] = Part 2, cohorts at 10 and 20 mg QD
[2] = Part 2, cohorts at 15 and 20 mg BID
[3] = Part 2 Day 1, 10 mg QD, tau 24 hours
[4] = Part 2 Day 1, 15 mg BID, fasted
[5] = Part 2 Day 1, 20 mg BID, fasted
[6] = Part 2 Day 1, 20 mg BID, tau 12 hours
[7] = Part 2 Day 14 steady state, 10 mg QD
[8] = Part 2 Day 14 steady state, 15 mg BID
[9] = Part 2 Day 14 steady state, 20 mg BID
[10] = Part 2 Day 14 steady state, 20 mg QD
[11] = Part 2 Day 14 steady state, 20 mg QD, tau 24 hours

## CC(C)(C(=O)N1CCOc2c(C#N)cncc2C1)C(F)F [Compound 1, 4-(3,3-difluoro-2,2-dimethyl-propanoyl)-3,5-dihydro-2H-pyrido[3,4-f] [1,4]oxazepine-9-carbonitrile]
[1]
  Time to steady state (Tss), 50% median, point estimate: 1.81 days
  Time to steady state (Tss), 90% quantile, point estimate: 2.45 days
[2]
  Time to steady state (Tss), 50% median, point estimate: 1.43 days
  Time to steady state (Tss), 90% quantile, point estimate: 1.65 days
Part 2 Day 1, 10 mg QD, fasted
  Cmax, Gmean: (157) [20.7] ng/mL
  Tmax, median: 1.00 h
[3]
  AUCtau, Gmean: (1080) h*ng/ml
  AUCtau, mean ± SD: 1110 ± 268 ng·h/mL
[4]
  Cmax, Gmean: (211) [44.2] ng/mL
  Tmax, median: 1.00 h
Part 2 Day 1, 15 mg BID, tau 12 hours
  AUCtau, Gmean: (1100) [33.1] h*ng/ml
[5]
  Cmax, Gmean: (205) [20.3] ng/mL
  Cmax, mean ± SD: 209 ± 42.4 ng/mL
  Tmax, median: 2.00 h
[6]
  AUCtau, Gmean: (1350) h*ng/ml
  AUCtau, mean ± SD: 1370 ± 252 ng·h/mL
Part 2 Day 1, 20 mg QD, fasted
  Cmax, Gmean: (240) [20.2] ng/mL
  Tmax, median: 1.50 h
Part 2 Day 1, 20 mg QD, tau 24 hours
  AUCtau, Gmean: (1860) [22.5 h*ng/ml
Part 2 Day 14, 10 mg QD
  CLSS/F, Gmean: (7.08) [25.9] L/h
  CLSS/F, mean ± SD: 7.30 ± 1.89 L/h
  Ctrough, Gmean: (19.9) [57.0] ng/mL
  Ctrough, mean ± SD: 22.8 ± 13.0 ng/mL
  T1/2z, Gmean: (8.87) [23.2] h
  T1/2z, mean ± SD: 9.07 ± 2.11 h
Part 2 Day 14, 15 mg BID
  CLSS/F, Gmean: (9.16) [30.0] L/h
  CLSS/F, mean ± SD: 9.54 ± 2.86 L/h
  Ctrough, Gmean: (79.3) [33.0] ng/mL
  Ctrough, mean ± SD: 83.7 ± 27.4 ng/mL
  T1/2z, Gmean: (7.21) [15.6] h
  T1/2z, mean ± SD: 7.29 ± 1.14 h
Part 2 Day 14, 20 mg BID
  CLSS/F, Gmean: (9.27) [24.9] L/h
  CLSS/F, mean ± SD: 9.53 ± 2.37 L/h
  Ctrough, Gmean: (99.3) [40.0] ng/mL
  Ctrough, mean ± SD: 107 ± 42.7 ng/mL
  T1/2z, Gmean: (7.37) [23.0] h
  T1/2z, mean ± SD: 7.54 ± 1.74 h
Part 2 Day 14, 20 mg QD
  CLSS/F, Gmean: (9.40) [22.2] L/h
  CLSS/F, mean ± SD: 9.60 ± 2.14 L/h
  Ctrough, Gmean: (30.4) [49.0] ng/mL
  Ctrough, mean ± SD: 34.2 ± 16.6 ng/mL
  T1/2z, Gmean: (8.53) [19.0] h
  T1/2z, mean ± SD: 8.68 ± 1.65 h
[7]
  Cmax, Gmean: (158) [31.9] ng/mL
  Tmax, median: 1.00 h
Part 2 Day 14 steady state, 10 mg QD, tau 24 hours
  AUCtau, Gmean: (1410) [27.4] h*ng/mL
[8]
  Cmax, Gmean: (268) [36.3] ng/mL
  Tmax, median: 1.00 h
Part 2 Day 14 steady state, 15 mg BID, tau 12 hours
  AUCtau, Gmean: (1640) [32.5] h*ng/mL
[9]
  Cmax, Gmean: (353) [19.9] ng/mL
  Tmax, median: 1.00 h
Part 2 Day 14 steady state, 20 mg BID, tau 12 hours
  AUCtau, Gmean: (2160) [25.9] h*ng/mL
[10]
  Cmax, Gmean: (250) [22.7] ng/mL
  Tmax, median: 2.00 h
[11]
  AUCtau, Gmean: (2130) [21.4] h*ng/mL
  AUCtau, mean ± SD: 2170 ± 465 ng·h/mL
Pooled doses QD
  Accumulation ratio (AUC0-24h), Day 14/Day 1: ~1.22
QD cohorts
  Within-subject variability for AUCtau: 8.0%
  Within-subject variability for Cmax: 15.8%
QD dosing regimen
  Total variability for AUCtau: 21.6%
  Total variability for Cmax: 20.6%
10 mg, Part 1a single 10 mg fasted, read-out: AUC, mean
  AUC: 1250 ng·h/mL
10 mg, Part 1a single 10 mg fasted, read-out: AUClast, mean
  AUC(0-t): 1200 ng·h/mL
10 mg, Part 1a single 10 mg fasted, read-out: Cmax, mean
  Cmax: 119 ng/mL
10 mg, Part 1b single 10 mg fed, read-out: AUC, mean
  AUC: 1460 ng·h/mL
10 mg, Part 1b single 10 mg fed, read-out: AUClast, mean
  AUC(0-t): 1220 ng·h/mL
10 mg, Part 2 Day 1, 10 mg QD, fasted, read-out: Cmax, mean ± SD
  Cmax: 161 ± 33.2 ng/mL
10 mg, Part 2 Day 14 steady state, 10 mg QD, tau 24 hours, read-out: AUCtau, mean ± SD
  AUC: 1460 ± 399 ng·h/mL
10 mg, Part 2 Day 14 steady state, 10 mg QD, read-out: Cmax, mean ± SD
  Cmax: 164 ± 52.3 ng/mL
15 mg, Part 2 Day 1, 15 mg BID, fasted, read-out: Cmax, mean ± SD
  Cmax: 229 ± 101 ng/mL
15 mg, Part 2 Day 1, 15 mg BID, tau 12 hours, read-out: AUCtau, mean ± SD
  AUC: 1150 ± 380 ng·h/mL
15 mg, Part 2 Day 14 steady state, 15 mg BID, tau 12 hours, read-out: AUCtau, mean ± SD
  AUC: 1710 ng·h/mL
15 mg, Part 2 Day 14 steady state, 15 mg BID, read-out: Cmax, mean ± SD
  Cmax: 284 ng/mL
20 mg, 20 mg BID, read-out: AUC0-24 h (corresponding to AUC0-12 h*2)
  AUC(0-t): 15 µM·h
20 mg, 20 mg BID, read-out: Mean observed Cmax
  Cmax: 1220 nM
20 mg, 20 mg QD, MAD study, read-out: Mean observed AUC0-24 at steady state
  AUC(0-t): 7.35 µM·h
20 mg, Part 1a single 20 mg fasted, read-out: Cmax, mean
  Cmax: 245 ng/mL
20 mg, Part 2 Day 1, 20 mg QD, fasted, read-out: Cmax, mean ± SD
  Cmax: 245 ± 49.5 ng/mL
20 mg, Part 2 Day 1, 20 mg QD, tau 24 hours, read-out: AUCtau, mean ± SD
  AUC: 1910 ± 429 ng·h/mL
20 mg, Part 2 Day 14 steady state, 20 mg BID, tau 12 hours, read-out: AUCtau, mean ± SD
  AUC: 2220 ± 574 ng·h/mL
20 mg, Part 2 Day 14 steady state, 20 mg BID, read-out: Cmax, mean ± SD
  Cmax: 359 ± 71.6 ng/mL
20 mg, Part 2 Day 14 steady state, 20 mg QD, read-out: Cmax, mean ± SD
  Cmax: 255 ± 58 ng/mL
30 mg, Part 1a single 30 mg fasted, read-out: AUC, mean
  AUC: 2570 ng·h/mL
30 mg, Part 1a single 30 mg fasted, read-out: AUClast, mean
  AUC(0-t): 2540 ng·h/mL
30 mg, Part 1a single 30 mg fasted, read-out: Cmax, mean
  Cmax: 439 ng/mL
40 mg, Part 1a single 40 mg fasted, read-out: AUC, mean
  AUC: 5460 ng·h/mL
40 mg, Part 1a single 40 mg fasted, read-out: AUClast, mean
  AUC(0-t): 5390 ng·h/mL
40 mg, Part 1a single 40 mg fasted, read-out: Cmax, mean
  Cmax: 576 ng/mL
40 mg, Part 1b single 40 mg fed, read-out: AUC, mean
  AUC: 5060 ng·h/mL
40 mg, Part 1b single 40 mg fed, read-out: AUClast, mean
  AUC(0-t): 4100 ng·h/mL
40 mg, Part 1b single 40 mg fed, read-out: Cmax, mean
  Cmax: 381 ng/mL
Part 1a, single 10 to 40 mg, fasted, read-out: Median tmax across doses
  Tmax: 1 to 1.5 h
Part 2, single or repeated administration, fasted, read-out: Median Tmax across dose levels
  Tmax: 1 to 2 h
Part 1a single 40 mg fasted
  Vd/F: 71.7 L
Part 1b single 10 mg fed
  Vd/F: 86 L
